Like-named read-outs stand apart in the source and are kept apart here.
Experiments:
[1] = tested on: SARS-CoV-2 MLV-PP infecting Expi-293F-ACE2 cells
[2] = tested on: SARS-CoV-2 MLV-PP infecting Expi-293F-ACE2 cells; assay: microbe, parasite or virus in culture; conditions: Severe acute respiratory syndrome coronavirus 2, read-out: IC50 of thymoquinone, SARS-CoV-2-PP infection

## C[C@@H]1CCO[C@H]2Cn3cc(C(=O)NCc4ccc(F)cc4F)c(=O)c(O)c3C(=O)N12 [dolutegravir, reference compound]
[1]
  inhibition of SARS-CoV-2 MLV-PP: potent inhibitor

## COc1cnc(-n2cnc(C)n2)c2[nH]cc(C(=O)C(=O)N3CCN(C(=O)c4ccccc4)CC3)c12 [temsavir, reference compound]
[1]
  inhibition of SARS-CoV-2 MLV-PP infecting Expi-293F-ACE2 cells: does not inhibit

## CC1=CC(=O)C(C(C)C)=CC1=O [thymoquinone]
[1]
  block of the viral infection: block the viral infection
  cell toxicity at high concentrations: can cause cell death
  concentration that blocks SARS-CoV-2-MLV-PP infection without any cell toxicity: 1 to 10 µM
  increased effectiveness on adding black seed oil to thymoquinone: about 16.0%
[1]; read-out: IC50 of thymoquinone, SARS-CoV-2-PP infection
  IC50: 3.6 µM
[2]
  IC50: 4.3 µM

— patent publication US20240016874A1, “COMPOSITIONS AND METHODS FOR PREVENTING AND TREATING CORONAVIRUSES” (priority 2020, published 2024)
